Results: ChEMBL document CHEMBL1909046, “DrugMatrix in vitro pharmacology data”

Assays:
[1] = target: 5-hydroxytryptamine receptor 4 (Cavia porcellus, UniProt O70528); assay type: cell membranes, Dunkin-Hartley, Striatum, Membrane; further: in other assays of this panel Not Active means under 50% inhibition at 10 µM
[2] = target: T1, Muscarinic acetylcholine receptor M4 (Homo sapiens, UniProt P08173); assay type: cell membranes, CHO-K1, Membrane; further: in other assays of this panel Not Active means under 50% inhibition at 10 µM
T1 sequence (P08173 whole entry): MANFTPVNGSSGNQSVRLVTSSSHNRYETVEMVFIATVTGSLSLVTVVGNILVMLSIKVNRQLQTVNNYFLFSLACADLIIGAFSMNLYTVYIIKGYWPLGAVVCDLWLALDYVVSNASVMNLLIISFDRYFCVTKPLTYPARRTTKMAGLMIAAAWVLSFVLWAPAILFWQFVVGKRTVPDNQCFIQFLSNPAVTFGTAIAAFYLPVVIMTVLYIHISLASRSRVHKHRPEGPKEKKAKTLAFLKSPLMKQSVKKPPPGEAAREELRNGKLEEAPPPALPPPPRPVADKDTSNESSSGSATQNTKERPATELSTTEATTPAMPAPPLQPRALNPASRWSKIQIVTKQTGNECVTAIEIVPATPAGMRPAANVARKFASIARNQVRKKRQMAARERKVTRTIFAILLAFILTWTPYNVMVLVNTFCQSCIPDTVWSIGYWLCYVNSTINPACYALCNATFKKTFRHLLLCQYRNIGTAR

[3] = target: T2, C-X-C chemokine receptor type 1 (Homo sapiens, UniProt P25024); further: in other assays of this panel Not Active means under 50% inhibition at 10 µM
T2 sequence (P25024 whole entry): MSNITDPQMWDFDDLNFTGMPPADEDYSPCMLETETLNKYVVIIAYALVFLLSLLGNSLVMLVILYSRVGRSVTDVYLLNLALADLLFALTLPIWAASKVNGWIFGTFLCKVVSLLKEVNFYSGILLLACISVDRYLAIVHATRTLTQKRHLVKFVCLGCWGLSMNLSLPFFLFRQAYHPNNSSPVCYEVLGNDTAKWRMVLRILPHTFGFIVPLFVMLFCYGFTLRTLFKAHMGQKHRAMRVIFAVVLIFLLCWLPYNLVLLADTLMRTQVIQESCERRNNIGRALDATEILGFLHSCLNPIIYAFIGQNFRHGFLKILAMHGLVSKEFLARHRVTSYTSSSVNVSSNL

[4] = target: Cytochrome P450 2D6 (Homo sapiens, UniProt P10635); details: bti-tn-5b1-4; further: in other assays of this panel Not Active means under 50% inhibition at 10 µM
[5] = DRUGMATRIX: Sodium/nucleoside co-transporter radioligand binding (ligand: nitrobenzylthioinosine); assay type: cell membranes, Cavia porcellus, Dunkin-Hartley, Cerebral cortex, Membrane; details: Not Active = under 50% inhibition at 10 µM
[6] = target: Beta-2 adrenergic receptor (Homo sapiens, UniProt P07550); assay: DRUGMATRIX: Adrenergic beta2 radioligand binding (ligand: [3H] CGP-12177); assay type: cell membranes, Membrane; details: cho; Not Active = under 50% inhibition at 10 µM
[7] = target: Melanocortin receptor 3 (Homo sapiens, UniProt P41968); assay type: cell membranes, Membrane; details: hek293; further: in other assays of this panel Not Active means under 50% inhibition at 10 µM
[8] = DRUGMATRIX: Imidazoline I2, Central radioligand binding (ligand: [3H] Idazoxan); assay type: cell membranes, Rattus norvegicus, Wistar, Cerebral cortex, Membrane; details: Not Active = under 50% inhibition at 10 µM
[9] = DRUGMATRIX: Leukotriene, BLT (LTB4) radioligand binding (ligand: [3H]LTB4); assay type: cell membranes, Membrane; details: u-937; Not Active = under 50% inhibition at 10 µM
[10] = target: T3, Cholecystokinin receptor type A (Homo sapiens, UniProt P32238); assay type: cell membranes, Membrane; details: 1321-n1; further: in other assays of this panel Not Active means under 50% inhibition at 10 µM
T3 sequence (P32238 whole entry): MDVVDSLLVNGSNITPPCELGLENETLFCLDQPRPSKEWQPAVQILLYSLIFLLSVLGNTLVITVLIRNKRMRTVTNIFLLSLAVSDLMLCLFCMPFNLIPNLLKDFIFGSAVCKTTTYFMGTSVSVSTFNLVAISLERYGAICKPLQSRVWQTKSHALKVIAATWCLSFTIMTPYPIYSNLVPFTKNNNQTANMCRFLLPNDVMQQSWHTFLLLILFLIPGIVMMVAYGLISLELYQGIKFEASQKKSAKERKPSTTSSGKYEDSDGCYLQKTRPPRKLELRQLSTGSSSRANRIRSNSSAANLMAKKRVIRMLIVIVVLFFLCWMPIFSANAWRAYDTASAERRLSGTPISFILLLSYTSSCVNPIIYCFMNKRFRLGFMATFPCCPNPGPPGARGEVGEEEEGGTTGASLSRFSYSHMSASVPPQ

[11] = target: Insulin receptor (Rattus norvegicus, UniProt P15127); assay type: cell membranes, Wistar, Liver, Membrane; further: in other assays of this panel Not Active means under 50% inhibition at 10 µM
[12] = target: Histamine H2 receptor (Homo sapiens, UniProt P25021); assay type: cell membranes, CHO-K1, Membrane; details: cho-k1; further: in other assays of this panel Not Active means under 50% inhibition at 10 µM
[13] = target: T4, Cytochrome P450 1A2 (Homo sapiens, UniProt P05177); details: bti-tn-5b1-4; further: in other assays of this panel Not Active means under 50% inhibition at 10 µM
T4 sequence (P05177 whole entry): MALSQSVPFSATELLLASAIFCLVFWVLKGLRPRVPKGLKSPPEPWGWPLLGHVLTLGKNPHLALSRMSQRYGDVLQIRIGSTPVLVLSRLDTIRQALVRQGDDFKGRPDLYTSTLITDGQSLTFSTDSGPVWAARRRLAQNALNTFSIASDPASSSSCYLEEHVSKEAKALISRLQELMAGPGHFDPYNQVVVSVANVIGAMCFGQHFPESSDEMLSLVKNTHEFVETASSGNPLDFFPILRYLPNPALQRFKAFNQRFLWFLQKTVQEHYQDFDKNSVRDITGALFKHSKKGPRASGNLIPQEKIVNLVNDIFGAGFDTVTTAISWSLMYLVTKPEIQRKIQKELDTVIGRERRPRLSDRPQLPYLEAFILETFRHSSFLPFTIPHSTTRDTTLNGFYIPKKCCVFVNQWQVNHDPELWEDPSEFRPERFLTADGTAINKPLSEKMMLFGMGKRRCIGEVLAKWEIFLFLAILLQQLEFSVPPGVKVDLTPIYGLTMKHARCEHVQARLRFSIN

Chain of Insulin receptor (P15127 27-759 limits assumed): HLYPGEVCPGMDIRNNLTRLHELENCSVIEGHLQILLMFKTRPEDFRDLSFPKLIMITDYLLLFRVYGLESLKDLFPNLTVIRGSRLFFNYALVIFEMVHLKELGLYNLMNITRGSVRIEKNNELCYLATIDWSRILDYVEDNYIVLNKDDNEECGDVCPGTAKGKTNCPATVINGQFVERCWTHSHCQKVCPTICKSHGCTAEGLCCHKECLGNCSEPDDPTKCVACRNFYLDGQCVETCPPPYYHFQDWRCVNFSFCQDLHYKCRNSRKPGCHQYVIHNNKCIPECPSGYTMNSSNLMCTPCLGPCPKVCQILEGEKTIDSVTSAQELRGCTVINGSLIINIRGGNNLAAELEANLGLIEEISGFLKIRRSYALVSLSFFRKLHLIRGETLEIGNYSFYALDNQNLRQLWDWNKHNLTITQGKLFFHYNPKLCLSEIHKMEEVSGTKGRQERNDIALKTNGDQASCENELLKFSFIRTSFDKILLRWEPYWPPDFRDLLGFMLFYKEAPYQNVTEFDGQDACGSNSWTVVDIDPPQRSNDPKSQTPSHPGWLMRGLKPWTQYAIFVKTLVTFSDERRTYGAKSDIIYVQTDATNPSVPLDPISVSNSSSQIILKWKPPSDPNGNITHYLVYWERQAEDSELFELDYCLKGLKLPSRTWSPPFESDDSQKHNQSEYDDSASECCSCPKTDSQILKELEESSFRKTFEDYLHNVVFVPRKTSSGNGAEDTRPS
Chain of Insulin receptor (P15127 764-1383 limits assumed): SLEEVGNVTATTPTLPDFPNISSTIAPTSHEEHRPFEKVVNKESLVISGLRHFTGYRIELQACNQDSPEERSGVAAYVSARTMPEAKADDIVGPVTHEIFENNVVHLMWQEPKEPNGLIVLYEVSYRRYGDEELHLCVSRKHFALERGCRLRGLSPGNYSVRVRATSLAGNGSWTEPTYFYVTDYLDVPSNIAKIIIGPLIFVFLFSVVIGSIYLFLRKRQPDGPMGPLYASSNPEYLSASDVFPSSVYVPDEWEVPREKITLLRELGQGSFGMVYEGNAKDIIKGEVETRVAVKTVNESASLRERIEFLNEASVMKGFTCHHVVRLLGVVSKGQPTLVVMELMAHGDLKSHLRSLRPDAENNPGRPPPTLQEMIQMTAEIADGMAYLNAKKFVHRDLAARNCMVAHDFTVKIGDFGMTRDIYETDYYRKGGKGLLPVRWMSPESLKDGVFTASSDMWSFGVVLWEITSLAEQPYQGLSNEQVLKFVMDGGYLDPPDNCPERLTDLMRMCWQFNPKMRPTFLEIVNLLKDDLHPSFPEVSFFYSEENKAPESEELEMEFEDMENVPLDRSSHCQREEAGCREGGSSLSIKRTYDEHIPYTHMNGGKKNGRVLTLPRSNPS
Chain of 5-hydroxytryptamine receptor 4 (O70528 whole entry): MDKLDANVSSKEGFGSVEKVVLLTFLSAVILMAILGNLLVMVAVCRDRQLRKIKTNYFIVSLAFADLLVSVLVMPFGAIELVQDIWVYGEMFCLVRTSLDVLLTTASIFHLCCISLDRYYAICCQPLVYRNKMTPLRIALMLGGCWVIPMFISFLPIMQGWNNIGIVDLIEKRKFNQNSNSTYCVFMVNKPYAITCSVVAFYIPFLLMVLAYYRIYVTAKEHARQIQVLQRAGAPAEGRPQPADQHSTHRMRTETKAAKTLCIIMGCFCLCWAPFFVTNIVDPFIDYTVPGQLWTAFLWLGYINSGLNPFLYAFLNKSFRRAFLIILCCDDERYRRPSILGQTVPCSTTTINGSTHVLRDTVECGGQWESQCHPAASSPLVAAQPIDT
Chain of Histamine H2 receptor (P25021 whole entry): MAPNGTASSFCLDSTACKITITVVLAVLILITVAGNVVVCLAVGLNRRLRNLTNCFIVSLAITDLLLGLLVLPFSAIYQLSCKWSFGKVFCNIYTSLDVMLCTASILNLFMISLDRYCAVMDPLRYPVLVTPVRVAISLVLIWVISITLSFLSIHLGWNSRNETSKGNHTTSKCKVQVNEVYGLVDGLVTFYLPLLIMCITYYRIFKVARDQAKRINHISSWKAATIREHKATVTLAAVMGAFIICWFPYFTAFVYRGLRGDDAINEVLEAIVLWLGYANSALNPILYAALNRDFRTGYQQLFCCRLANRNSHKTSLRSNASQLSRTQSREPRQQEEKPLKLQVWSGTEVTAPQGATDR
Chain of Beta-2 adrenergic receptor (P07550 whole entry): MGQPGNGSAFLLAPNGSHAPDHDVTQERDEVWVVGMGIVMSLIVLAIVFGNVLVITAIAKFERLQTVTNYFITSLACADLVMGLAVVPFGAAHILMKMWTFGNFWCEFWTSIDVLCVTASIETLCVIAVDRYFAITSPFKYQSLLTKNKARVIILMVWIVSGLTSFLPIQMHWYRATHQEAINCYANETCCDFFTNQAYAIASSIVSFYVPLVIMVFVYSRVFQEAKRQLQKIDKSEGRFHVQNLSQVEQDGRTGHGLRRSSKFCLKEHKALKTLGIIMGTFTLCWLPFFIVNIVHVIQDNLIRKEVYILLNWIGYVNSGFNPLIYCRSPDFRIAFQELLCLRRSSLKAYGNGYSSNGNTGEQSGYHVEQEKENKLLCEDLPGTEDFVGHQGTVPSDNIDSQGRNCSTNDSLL
Chain of Melanocortin receptor 3 (P41968 whole entry): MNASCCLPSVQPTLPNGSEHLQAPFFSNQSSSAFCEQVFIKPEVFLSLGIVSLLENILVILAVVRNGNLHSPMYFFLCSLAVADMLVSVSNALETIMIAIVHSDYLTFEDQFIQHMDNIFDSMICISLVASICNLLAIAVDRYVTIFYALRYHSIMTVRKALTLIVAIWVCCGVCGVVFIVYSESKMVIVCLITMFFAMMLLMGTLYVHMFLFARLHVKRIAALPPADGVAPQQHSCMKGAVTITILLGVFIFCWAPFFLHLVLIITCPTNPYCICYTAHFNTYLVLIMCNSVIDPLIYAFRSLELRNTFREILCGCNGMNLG
Chain of Cytochrome P450 2D6 (P10635 whole entry): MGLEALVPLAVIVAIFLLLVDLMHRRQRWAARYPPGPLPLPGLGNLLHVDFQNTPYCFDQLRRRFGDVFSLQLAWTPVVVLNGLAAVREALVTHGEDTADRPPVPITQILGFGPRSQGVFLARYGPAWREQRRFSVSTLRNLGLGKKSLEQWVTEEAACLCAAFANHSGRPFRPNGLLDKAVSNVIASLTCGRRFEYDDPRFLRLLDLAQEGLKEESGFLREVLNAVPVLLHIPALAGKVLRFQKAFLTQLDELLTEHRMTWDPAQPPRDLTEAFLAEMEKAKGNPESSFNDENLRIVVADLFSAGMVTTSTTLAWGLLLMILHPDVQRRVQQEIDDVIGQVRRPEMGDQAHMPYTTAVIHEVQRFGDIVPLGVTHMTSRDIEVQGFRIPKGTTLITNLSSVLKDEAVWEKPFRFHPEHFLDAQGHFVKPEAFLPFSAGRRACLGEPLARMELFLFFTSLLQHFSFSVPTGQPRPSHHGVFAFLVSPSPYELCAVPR

Row | Compound | IC50 [1] | IC50 ([2]; cho-k1) | IC50 [3] | IC50 [4] | Ki [4] | IC50 [5] | Ki [5] | IC50 [6] | IC50 [7] | IC50 [8] | Ki [8] | IC50 [9] | Ki [9] | IC50 [10] | IC50 [11] | IC50 [12] | IC50 [13] | Ki [13] | other results
1 | CCCSc1ccc2nc(NC(=O)OC)[nH]c2c1 [ALBENDAZOLE] | Not Active | Not Active | Not Active | Not Active | Not Active | Not Active | Not Active | Not Active | Not Active | Not Active | Not Active | Not Active | Not Active | Not Active | Not Active | Not Active | Not Active | Not Active | 
2 | O=P1(NCCCl)OCCCN1CCCl (centres undefined) [IFOSFAMIDE] | Not Active | Not Active | Not Active |  |  | Not Active | Not Active | Not Active | Not Active | Not Active | Not Active | Not Active | Not Active | Not Active | Not Active | Not Active |  |  | 
3 | CC(C)(Oc1ccc(CCNC(=O)c2ccc(Cl)cc2)cc1)C(=O)O [BEZAFIBRATE] | Not Active | Not Active | Not Active | Not Active | Not Active | Not Active | Not Active | Not Active | Not Active | Not Active | Not Active | Not Active | Not Active | Not Active | Not Active | Not Active | Not Active | Not Active | 
4 | N=C(N)NCCCCNC(=N)N.O=S(=O)(O)O [ARCAINE SULFATE] | Not Active | Not Active | Not Active | Not Active | Not Active | Not Active | Not Active | Not Active | Not Active | Not Active | Not Active | Not Active | Not Active | Not Active | Not Active | Not Active | Not Active | Not Active | 
5 | Fc1ccc([C@@H]2CCNC[C@H]2COc2ccc3c(c2)OCO3)cc1 [PAROXETINE] | Not Active |  | Not Active |  |  | Not Active | Not Active | Not Active | Not Active | Not Active | Not Active | Not Active | Not Active | Not Active | Not Active | Not Active | Not Active | Not Active | IC50 ([2]; read-out: IC50): 244 nM; Ki ([2]; read-out: Ki): 34 nM
6 | CC=CC(=O)N(CC)c1ccccc1C | Not Active | Not Active | Not Active | Not Active | Not Active | Not Active | Not Active | Not Active | Not Active | Not Active | Not Active | Not Active | Not Active | Not Active | Not Active | Not Active | Not Active | Not Active | 
7 | CCCc1cc(=O)[nH]c(=S)[nH]1 [PROPYLTHIOURACIL] | Not Active | Not Active | Not Active | Not Active | Not Active | Not Active | Not Active | Not Active | Not Active | Not Active | Not Active | Not Active | Not Active | Not Active | Not Active | Not Active | Not Active | Not Active | 
8 | CNC(=O)Oc1ccc2c(c1)[C@]1(C)CCN(C)[C@@H]1N2C [PHYSOSTIGMINE] | Not Active | Not Active | Not Active |  |  | Not Active | Not Active | Not Active | Not Active | Not Active | Not Active | Not Active | Not Active | Not Active | Not Active | Not Active | Not Active | Not Active | 
9 | COc1ccc(CN(CCN(C)C)c2ccccn2)cc1 [PYRILAMINE] | Not Active | Not Active | Not Active |  |  | Not Active | Not Active | Not Active | Not Active |  |  | Not Active | Not Active | Not Active | Not Active | Not Active | Not Active | Not Active | IC50 ([8]; read-out: IC50): 3340 nM; Ki ([8]; read-out: Ki): 2230 nM
10 | CCc1ccc(C(=O)C(C)CN2CCCCC2)cc1 (centres undefined) [EPERISONE] | Not Active | Not Active | Not Active |  |  | Not Active | Not Active | Not Active | Not Active | Not Active | Not Active | Not Active | Not Active | Not Active | Not Active | Not Active | Not Active | Not Active | 
